Assay results as given in US11339144B2 (Navitor Pharmaceuticals, Inc., priority 2017, dated 2022).

Columns and labels:
Rheb = Rheb (Homo sapiens (Human), UniProt Q15382); test: Affinity Selection Mass Spectrometry (ASMS); type: binding; details: affinity (R3/R0) in Affinity Selection Mass Spectrometry assay
Procedure, shortened: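 Human Rheb (60 μM) with GDP (180 μM) and each compound at 2 μM, protein-plus versus protein-minus, incubated 30 min at room temperature, then washed by 10 kDa ultrafiltration. Retained ligand was released with MeCN and detected by UPLC-Q-TOF MS.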

[1] = target: HA-GST-Rheb (GTP-γ-S loaded) activating mTORC1 (Homo sapiens (Human), UniProt Q15382); test: Rheb-dependent in vitro kinase assay (Rheb-IVK; LanthaScreen or Western readout); type: biochemical; details: Rheb-dependent in vitro kinase assay; read-out: IVK IC50
Sequence of HA-GST-Rheb (GTP-γ-S loaded) activating mTORC1 (Q15382 1-181): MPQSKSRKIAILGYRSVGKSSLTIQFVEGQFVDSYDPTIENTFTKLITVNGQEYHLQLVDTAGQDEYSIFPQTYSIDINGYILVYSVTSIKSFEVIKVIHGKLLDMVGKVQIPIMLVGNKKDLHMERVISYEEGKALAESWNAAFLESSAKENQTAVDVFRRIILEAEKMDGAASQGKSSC

Sequence of Rheb (Q15382 1-169 limits assumed): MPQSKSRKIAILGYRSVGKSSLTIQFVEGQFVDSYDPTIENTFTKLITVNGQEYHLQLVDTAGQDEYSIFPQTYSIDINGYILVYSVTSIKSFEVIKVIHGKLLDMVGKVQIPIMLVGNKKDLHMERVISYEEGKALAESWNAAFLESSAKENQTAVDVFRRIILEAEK

Row | IC50 [1] [µM] | SMILES | ASMS (R3/R0) (Rheb)
1 | 10 to 100 | Cc1cc(Sc2ccc(Cl)cc2)c2cc(C(=O)O)[nH]c2c1Br [I-64, 7-bromo-4-(4-chlorophenylthio)-6-methyl-1H-indole-2-carboxylic acid] | B (an affinity (R3/R0) between 100% and 20%)
2 | < 10 | CC(C)(C)c1cccc(Sc2cc(Cl)cc3[nH]c(C(=O)O)cc23)c1 [I-65, 4-(3-tert-butylphenylthio)-6-chloro-1H-indole-2-carboxylic acid] | B (an affinity (R3/R0) between 100% and 20%)
3 | 10 to 100 | O=C(O)c1cc2c(Br)cc(Oc3ccccc3)cc2n1Cc1ccc(C(=O)N(CCO)CCO)cc1 [I-67, 1-(4-(bis(2-hydroxyethyl)carbamoyl)benzyl)-4-bromo-6-phenoxy-1H-indole-2-carboxylic acid] | C (an affinity (R3/R0)<20%)
4 | > 3 | CN1CCN(C(=O)c2ccc(Cn3c(C(=O)O)cc4c(Br)cc(Oc5ccccc5)cc43)cc2)CC1 [I-68] | C (an affinity (R3/R0)<20%)
5 | 10 to 100 | CN(CCO)C(=O)c1ccc(Cn2c(C(=O)O)cc3c(Br)cc(Oc4ccccc4)cc32)cc1 [I-69, 4-bromo-1-(4-((2-hydroxyethyl)(methyl)carbamoyl)benzyl)-6-phenoxy-1H-indole-2-carboxylic acid] | C (an affinity (R3/R0)<20%)
6 | < 10 | O=C(O)c1cc2c(Sc3ccc(Cl)cc3Cl)cc(Cl)cc2n1Cc1ccc(-c2ccncc2)cc1 [I-70, 6-chloro-4-(2,4-dichlorophenylthio)-1-(4-(pyridin-4-yl)benzyl)-1H-indole-2-carboxylic acid] | A (an affinity (R3/R0)>100%)
7 | < 10 | CN1CC(NC(=O)c2cc3c(Sc4ccc(Cl)cc4)cc(Cl)cc3[nH]2)C1 [I-71, 6-chloro-4-(4-chlorophenylthio)-N-(1-methylazetidin-3-yl)-1H-indole-2-carboxamide] | B (an affinity (R3/R0) between 100% and 20%)
8 | < 10 | O=C(O)c1cc2c(Sc3ccc(Cl)cc3Cl)cc(Cl)cc2n1Cc1ccc(-c2cccc(CO)c2)cc1 [I-72, 6-chloro-4-(2,4-dichlorophenylthio)-1-((3′-(hydroxymethyl)biphenyl-4-yl)methyl)-1H-indole-2-carboxylic acid] | B (an affinity (R3/R0) between 100% and 20%)
9 | < 10 | O=C(O)c1cc2c(Sc3ccc(Cl)cc3)cc(Cl)c(Cl)c2[nH]1 [I-73, 6,7-dichloro-4-(4-chlorophenylthio)-1H-indole-2-carboxylic acid] | A (an affinity (R3/R0)>100%)
10 | 10 to 100 | OCc1cc2c(Sc3cccc4cccnc34)cc(Cl)cc2[nH]1 [I-74, (6-chloro-4-(quinolin-8-ylthio)-1H-indol-2-yl)methanol] | B (an affinity (R3/R0) between 100% and 20%)
11 | < 10 | CN(C)C(=O)c1ccc(Cn2c(C(=O)O)cc3c(Cl)cc(Sc4ccc(Cl)c(Cl)c4)cc32)cc1 [I-75, 4-chloro-6-(3,4-dichlorophenylthio)-1-(4-(dimethylcarbamoyl)benzyl)-1H-indole-2-carboxylic acid] | B (an affinity (R3/R0) between 100% and 20%)
12 | 10 to 100 | OCc1cc2cc(SCc3ccc(Cl)cc3)c(Cl)cc2[nH]1 [I-76, (6-chloro-5-(4-chlorobenzylthio)-1H-indol-2-yl)methanol] | B (an affinity (R3/R0) between 100% and 20%)
13 | < 10 | Cc1c(-c2ccc(Cn3c(C(=O)O)cc4c(Sc5ccc(Cl)cc5Cl)cc(Cl)cc43)cc2)cnn1C [I-77, 6-chloro-4-(2,4-dichlorophenylthio)-1-(4-(1,5-dimethyl-1H-pyrazol-4-yl)benzyl)-1H-indole-2-carboxylic acid] | B (an affinity (R3/R0) between 100% and 20%)
14 | < 10 | Nc1ccc(-c2ccc(Cn3c(C(=O)O)cc4c(Sc5ccc(Cl)cc5Cl)cc(Cl)cc43)cc2)cc1 [I-78, 1-((4′-aminobiphenyl-4-yl)methyl)-6-chloro-4-(2,4-dichlorophenylthio)-1H-indole-2-carboxylic acid] | B (an affinity (R3/R0) between 100% and 20%)
15 | > 100 | CN1CCC(NC(=O)c2cc3c(Sc4ccc(Cl)cc4)cc(Cl)cc3[nH]2)CC1 [I-80] | B (an affinity (R3/R0) between 100% and 20%)
16 | 10 to 100 | Cc1ccc(Oc2cc(Cl)cc3[nH]c(C(=O)O)cc23)cc1C(F)(F)F [I-81, 6-chloro-4-(4-methyl-3-(trifluoromethyl)phenoxy)-1H-indole-2-carboxylic acid] | B (an affinity (R3/R0) between 100% and 20%)
17 | < 10 | Cc1ccc(Oc2cc(Cl)cc3[nH]c(CO)cc23)cc1C(F)(F)F [I-82, (6-Chloro-4-(4-methyl-3-(trifluoromethyl)phenoxy)-1H-indol-2-yl)methanol] | B (an affinity (R3/R0) between 100% and 20%)
18 | > 100 | CN1CCCN(C(=O)c2cc3c(Sc4ccc(Cl)cc4)cc(Cl)cc3[nH]2)CC1 [I-83] | B (an affinity (R3/R0) between 100% and 20%)

Row | IC50 [1] [µM] | SMILES | ASMS (R3/R0) (Rheb)
19 | < 10 | O=C(O)c1cc2c(Sc3ccc(Oc4ccc(Cl)cc4)cc3)cc(Cl)cc2[nH]1 [I-84, 6-chloro-4-(4-(4-chlorophenoxy)phenylthio)-1H-indole-2-carboxylic acid] | B (an affinity (R3/R0) between 100% and 20%)
20 | 10 to 100 | O=C(O)c1cc2cc(SCc3ccc(Cl)cc3)c(Cl)cc2[nH]1 [I-85, 6-chloro-5-(4-chlorobenzylthio)-1H-indole-2-carboxylic acid] | B (an affinity (R3/R0) between 100% and 20%)
21 | 10 to 100 | O=C(O)c1cc2c(Sc3cccc4cccnc34)cc(Cl)cc2[nH]1 [I-87, 6-chloro-4-(quinolin-8-ylthio)-1H-indole-2-carboxylic acid] | B (an affinity (R3/R0) between 100% and 20%)
22 | < 10 | O=C(O)c1cc2c(Sc3ccc(Cl)c(Cl)c3)cc(Sc3ccc(Cl)c(Cl)c3)cc2[nH]1 [I-88, 4,6-bis(3,4-dichlorophenylthio)-1H-indole-2-carboxylic acid] | B (an affinity (R3/R0) between 100% and 20%)
23 | > 100 | CN1CCC[C@H]1CNC(=O)c1cc2c(Br)cc(Sc3ccc(Cl)c(Cl)c3)cc2[nH]1 [I-89] | A (an affinity (R3/R0)>100%)
24 | > 100 | CN1CCN(C(=O)c2cc3c(Sc4ccc(Cl)cc4)cc(Cl)cc3[nH]2)CC1 [I-90] | B (an affinity (R3/R0) between 100% and 20%)
25 | 10 to 100 | O=C(Nc1ccc(N2CCN(Cc3ccccc3)CC2)c(F)c1)c1cc2c(Sc3ccc(Cl)cc3Cl)cc(Cl)cc2[nH]1 [I-91, N-(4-(4-benzylpiperazin-1-yl)-3-fluorophenyl)-6-chloro-4-(2,4-dichlorophenylthio)-1H-indole-2-carboxamide] | B (an affinity (R3/R0) between 100% and 20%)
26 | 10 to 100 | Nc1ccc(N2CCN(C(=O)c3cc4c(Sc5ccc(Cl)cc5Cl)cc(Cl)cc4[nH]3)CC2)cc1F [I-92, (4-(4-amino-3-fluorophenyl)piperazin-1-yl)(6-chloro-4-(2,4-dichlorophenylthio)-1H-indol-2-yl)methanone] | B (an affinity (R3/R0) between 100% and 20%)
27 | < 10 | CN1CCCN(c2ccc(NC(=O)c3cc4c(Sc5ccc(Cl)cc5Cl)cc(Cl)cc4[nH]3)cc2F)CC1 [I-93, 6-chloro-4-(2,4-dichlorophenylthio)-N-(3-fluoro-4-(4-methyl-1,4-diazepan-1-yl)phenyl)-1H-indole-2-carboxamide] | A (an affinity (R3/R0)>100%)
28 | < 10 | O=C(O)c1cc2c(SCc3ccc(Cl)cc3)cc(SCc3ccc(Cl)cc3)cc2[nH]1 [I-94, 4,6-bis(4-chlorobenzylthio)-1H-indole-2-carboxylic acid] | B (an affinity (R3/R0) between 100% and 20%)
29 | 10 to 100 | CN1CCN(c2ccc(NC(=O)c3cc4c(Br)cc(Sc5ccc(Cl)c(Cl)c5)cc4[nH]3)cc2)CC1 [I-96, 4-bromo-6-(3,4-dichlorophenylthio)-N-(4-(4-methylpiperazin-1-yl)phenyl)-1H-indole-2-carboxamide] | A (an affinity (R3/R0)>100%)
30 | > 100 | CN1CCC(CCNC(=O)c2cc3c(Br)cc(Sc4ccc(Cl)c(Cl)c4)cc3[nH]2)CC1 [I-97] | B (an affinity (R3/R0) between 100% and 20%)
31 | 10 to 100 | O=C(O)c1cc2c(Sc3ccc(Br)cc3)cc(Cl)cc2[nH]1 [I-98, 4-(4-bromophenylthio)-6-chloro-1H-indole-2-carboxylic acid] | B (an affinity (R3/R0) between 100% and 20%)
32 | > 100 | COC(=O)c1cc2c(Sc3ccc(Br)cc3)cc(Cl)cc2[nH]1 [I-99] | B (an affinity (R3/R0) between 100% and 20%)
33 | < 10 | O=C(O)c1cc2c(Cl)cc(Sc3ccc(Cl)c(Cl)c3)cc2[nH]1 [I-100, 4-chloro-6-(3,4-dichlorophenylthio)-1H-indole-2-carboxylic acid] | B (an affinity (R3/R0) between 100% and 20%)
34 | > 100 | CC(C)NC(=O)c1ccc(Cn2c(C(=O)O)cc3c(Br)cc(Sc4ccc(Cl)c(Cl)c4)cc32)cc1 [I-101] | B (an affinity (R3/R0) between 100% and 20%)
35 | > 100 | O=C(O)c1cc2c(Sc3ccc(Cl)cc3Cl)cc(Cl)cc2n1Cc1ccc(Br)cc1 [I-103] | B (an affinity (R3/R0) between 100% and 20%)

Row | SMILES | IC50 [1] [µM] | ASMS (R3/R0) (Rheb)
36 | CC(C)(C)OC(=O)c1ccc(Cn2c(C(=O)O)cc3c(Cl)cc(Sc4ccc(Cl)c(Cl)c4)cc32)cc1 [I-95, 1-(4-(tert-butoxycarbonyl)benzyl)-4-chloro-6-(3,4-dichlorophenylthio)-1H-indole-2-carboxylic acid] | 10 to 100 | B (an affinity (R3/R0) between 100% and 20%)
